Tests used:
Set-up in all cases: scale not given here
AMBEL Ragweed, Common = assay: Postemergence herbicidal evaluation, AMBEL; type: in vivo, Ambrosia artemisifolia, L.; settings: postemergence spray, rated about two-three weeks after treatment
Experimental: (§1) In this evaluation, seedling plants are grown in jiffy flats for about two weeks. The test compounds are dispersed in 80/20 acetone/water mixtures containing 1.0% SUN-IT® II, a methylated seed oil, in sufficient quantities to provide the equivalent of about 0.006 kg to 0.400 kg per hectare of active compound when applied to the plants through a spray nozzle operating at 40 psi for a predetermined time. After spraying, the plants are placed on greenhouse benches and are cared for in accordance with conventional greenhouse procedures. Approximately two - three weeks after treatment, the seedling plants are examined and rated according to the rating system set forth below. Where more than one test is involved for a given compound, the data are averaged.

ORYSAT Rice, Tebonnet = assay: Preemergence herbicidal evaluation, ORYSAT; type: in vivo, Oryza sativa, (L.); settings: preemergence
Text: (§2) The preemergence herbicidal activity of the test compounds of the present invention is exemplified by the following tests in which the seeds of a variety of monocotyledonous and dicotyledonous plants are separately mixed with potting soil and planted on top of approximately one inch of soil in separate pint cups. […] The treated cups are then placed on greenhouse benches, watered and cared for in accordance with conventional greenhouse procedures. From four to five weeks after treatment, the tests are terminated and each cup is examined and rated according to the rating system provided in Example 46.

ABUTH Velvetleaf [1] = assay: Preemergence herbicidal evaluation, ABUTH; type: in vivo, Abutilon theophrasti, Medic.; settings: preemergence
Text: as §2

[2] = system: IPOHE Morningglory, Ivyleaf; assay: Postemergence herbicidal evaluation, IPOHE; type: in vivo, Ipomoea hederacea, (L.) Jacq.; settings: postemergence spray, rated about two-three weeks after treatment
Experimental: as §1

ABUTH Velvetleaf [3] = assay: Postemergence herbicidal evaluation, ABUTH; type: in vivo, Abutilon theophrasti, Medic.; settings: postemergence spray, rated about two-three weeks after treatment
Experimental: as §1

[4] = system: CHEAL Lambsquarters, Common; assay: Preemergence herbicidal evaluation, CHEAL; type: in vivo, Chenopodium album, L.; settings: preemergence
Text: as §2

GLXMAW Soybean, Williams = assay: Postemergence herbicidal evaluation, GLXMAW; type: in vivo, Glycine max, (L.) Merr. cv Williams; settings: postemergence spray, rated about two-three weeks after treatment
Experimental: as §1

ZEAMX Corn, Field = assay: Postemergence herbicidal evaluation, ZEAMX; type: in vivo, Zea mays, L. (Sammel-Bezeichnung); settings: postemergence spray, rated about two-three weeks after treatment
Experimental: as §1

[5] = system: TRZAWR Wheat, Winter, cv Riband; assay: Preemergence herbicidal evaluation, TRZAWR; type: in vivo, Triticum aestivum; settings: preemergence
Text: as §2

SETVI Foxtail, Green = assay: Postemergence herbicidal evaluation, SETVI; type: in vivo, Setaria viridis, (L.) Beau; settings: postemergence spray, rated about two-three weeks after treatment
Experimental: as §1

ECHOG Barnyardgrass = assay: Postemergence herbicidal evaluation, ECHOG; type: in vivo, Echinochloa crus-galli, (L.) Beau; settings: postemergence spray, rated about two-three weeks after treatment
Experimental: as §1

[6] = system: CHEAL Lambsquarters, Common; assay: Postemergence herbicidal evaluation, CHEAL; type: in vivo, Chenopodium album, L.; settings: postemergence spray, rated about two-three weeks after treatment
Experimental: as §1

Cc1ccc(-n2nnc3cc(F)c(-n4c(=O)cc(C(F)(F)F)n(C)c4=O)cc32)cc1 [Example 19]
2.0: ORYSAT herbicidal rating (ORYSAT Rice, Tebonnet; rate 0.125 kg/ha) | TRZAWR herbicidal rating ([5]; rate 0.062 kg/ha) | Postemergence herbicidal rating CHEAL ([6]; 0.016 kg/ha)
1.5: ORYSAT herbicidal rating (ORYSAT Rice, Tebonnet; rate 0.062 kg/ha)
3.0: TRZAWR herbicidal rating ([5]; rate 0.125 kg/ha) | Postemergence herbicidal rating SETVI (SETVI Foxtail, Green; 0.062 kg/ha) | Postemergence herbicidal rating CHEAL ([6]; 0.032 kg/ha)
0.5: ORYSAT herbicidal rating (ORYSAT Rice, Tebonnet; rate 0.032 kg/ha)
4.0: Postemergence herbicidal rating AMBEL (AMBEL Ragweed, Common; 0.032 kg/ha) | Postemergence herbicidal rating IPOHE ([2]; 0.008 kg/ha) | Postemergence herbicidal rating IPOHE ([2]; 0.016 kg/ha)
9.0: ABUTH herbicidal rating (ABUTH Velvetleaf [1]; rate 0.062 kg/ha) | ABUTH herbicidal rating (ABUTH Velvetleaf [1]; rate 0.125 kg/ha) | Postemergence herbicidal rating IPOHE ([2]; 0.032 kg/ha) | Postemergence herbicidal rating IPOHE ([2]; 0.062 kg/ha) | Postemergence herbicidal rating ABUTH (ABUTH Velvetleaf [3]; 0.008 kg/ha) | Postemergence herbicidal rating ABUTH (ABUTH Velvetleaf [3]; 0.016 kg/ha) | Postemergence herbicidal rating ABUTH (ABUTH Velvetleaf [3]; 0.032 kg/ha) | Postemergence herbicidal rating ABUTH (ABUTH Velvetleaf [3]; 0.062 kg/ha) | CHEAL herbicidal rating ([4]; rate 0.016 kg/ha) | CHEAL herbicidal rating ([4]; rate 0.032 kg/ha) | CHEAL herbicidal rating ([4]; rate 0.062 kg/ha) | CHEAL herbicidal rating ([4]; rate 0.125 kg/ha)
1.0: Postemergence herbicidal rating AMBEL (AMBEL Ragweed, Common; 0.016 kg/ha) | ABUTH herbicidal rating (ABUTH Velvetleaf [1]; rate 0.016 kg/ha) | TRZAWR herbicidal rating ([5]; rate 0.032 kg/ha) | Postemergence herbicidal rating CHEAL ([6]; 0.008 kg/ha)
4.5: Postemergence herbicidal rating GLXMAW (GLXMAW Soybean, Williams; 0.008 kg/ha) | Postemergence herbicidal rating ZEAMX (ZEAMX Corn, Field; 0.008 kg/ha) | Postemergence herbicidal rating ZEAMX (ZEAMX Corn, Field; 0.016 kg/ha)
7.5: Postemergence herbicidal rating GLXMAW (GLXMAW Soybean, Williams; 0.062 kg/ha)
0.0: Postemergence herbicidal rating AMBEL (AMBEL Ragweed, Common; 0.008 kg/ha) | ORYSAT herbicidal rating (ORYSAT Rice, Tebonnet; rate 0.016 kg/ha) | TRZAWR herbicidal rating ([5]; rate 0.016 kg/ha) | Postemergence herbicidal rating SETVI (SETVI Foxtail, Green; 0.008 kg/ha) | Postemergence herbicidal rating SETVI (SETVI Foxtail, Green; 0.016 kg/ha) | Postemergence herbicidal rating SETVI (SETVI Foxtail, Green; 0.032 kg/ha) | Postemergence herbicidal rating ECHCG (ECHOG Barnyardgrass; 0.008 kg/ha) | Postemergence herbicidal rating ECHCG (ECHOG Barnyardgrass; 0.016 kg/ha) | Postemergence herbicidal rating ECHCG (ECHOG Barnyardgrass; 0.032 kg/ha) | Postemergence herbicidal rating ECHCG (ECHOG Barnyardgrass; 0.062 kg/ha)
5.5: Postemergence herbicidal rating GLXMAW (GLXMAW Soybean, Williams; 0.016 kg/ha) | Postemergence herbicidal rating ZEAMX (ZEAMX Corn, Field; 0.062 kg/ha)
5.0: Postemergence herbicidal rating AMBEL (AMBEL Ragweed, Common; 0.062 kg/ha) | Postemergence herbicidal rating ZEAMX (ZEAMX Corn, Field; 0.032 kg/ha) | Postemergence herbicidal rating CHEAL ([6]; 0.062 kg/ha)
6.5: ABUTH herbicidal rating (ABUTH Velvetleaf [1]; rate 0.032 kg/ha) | Postemergence herbicidal rating GLXMAW (GLXMAW Soybean, Williams; 0.032 kg/ha)
